Experimental data taken from ChEMBL document CHEMBL1127508, “Conformationally restricted competitive antagonists of human/rat corticotropin-releasing factor” (J Med Chem, 1994).

Columns and labels:
[1] = target: T1, Corticotropin-releasing factor receptor 1 (Rattus norvegicus) (UniProt P35353); test: Relative antagonistic potency in vitro measuring alteration of CRF-induced release of ACTH by rat anterior pituitary cells in culture; format: functional, cell-based; conditions: Pituitary gland cell
T1 sequence (whole entry): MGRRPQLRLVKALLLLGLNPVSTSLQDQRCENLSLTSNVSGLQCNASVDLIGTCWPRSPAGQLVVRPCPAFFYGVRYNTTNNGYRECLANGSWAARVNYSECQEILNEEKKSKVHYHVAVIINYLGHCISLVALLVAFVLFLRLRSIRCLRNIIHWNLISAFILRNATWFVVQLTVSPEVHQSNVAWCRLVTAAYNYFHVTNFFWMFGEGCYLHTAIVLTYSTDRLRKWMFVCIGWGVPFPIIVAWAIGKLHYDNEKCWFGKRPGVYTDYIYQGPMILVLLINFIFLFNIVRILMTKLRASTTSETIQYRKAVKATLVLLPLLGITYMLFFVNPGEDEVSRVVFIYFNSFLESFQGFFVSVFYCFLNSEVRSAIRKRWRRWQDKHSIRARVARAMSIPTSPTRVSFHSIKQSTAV

[2] = target: T1, Corticotropin-releasing factor receptor 1 (Rattus norvegicus); test: Intrinsic activity in ACTH release assay as percent CRF response; format: functional

| Activity [1] | Intrinsic activity [2] | Structure (SMILES) |
| --- | --- | --- |
| 0.02 | 3 | CCCC[C@H](NC(=O)[C@@H]1CCC(=O)NCCCC[C@H](NC(=O)[C@H](CCCN=C(N)N)NC(=O)[C@H](CC(C)C)NC(=O)[C@H](CC(C)C)NC(=O)[C@H](Cc2c[nH]cn2)NC(=O)[C@H](N)Cc2ccccc2)C(=O)N[C@@H](C(C)C)C(=O)N[C@@H](CC(C)C)C(=O)N1)C(=O)N[C@@H](C)C(=O)N[C@@H](CCCN=C(N)N)C(=O)N[C@@H](C)C(=O)N[C@@H](CCC(=O)O)C(=O)N[C@@H](CCC(N)=O)C(=O)N[C@@H](CC(C)C)C(=O)N[C@@H](C)C(=O)N[C@@H](CCC(N)=O)C(=O)N[C@@H](CCC(N)=O)C(=O)N[C@@H](C)C(=O)N[C@@H](Cc1c[nH]cn1)C(=O)N[C@@H](CO)C(=O)N[C@@H](CC(N)=O)C(=O)N[C@@H](CCCN=C(N)N)C(=O)N[C@@H](CCCCN)C(=O)N[C@@H](CC(C)C)C(=O)N[C@@H](CCCC)C(=O)N[C@@H](CCC(=O)O)C(=O)N[C@H](C(=O)N[C@H](C(=O)C(N)=O)[C@@H](C)CC)[C@@H](C)CC |
| 0.006 | – | CCCC[C@H](NC(=O)[C@H](CC(C)C)NC(=O)[C@H](CCCCN)NC(=O)[C@H](CCCN=C(N)N)NC(=O)[C@H](CC(N)=O)NC(=O)[C@H](CO)NC(=O)[C@H](Cc1c[nH]cn1)NC(=O)[C@H](C)NC(=O)[C@H](CCC(N)=O)NC(=O)[C@H](CCC(N)=O)NC(=O)[C@H](C)NC(=O)[C@H](CC(C)C)NC(=O)[C@H](CCC(N)=O)NC(=O)[C@H](CCC(=O)O)NC(=O)[C@H](C)NC(=O)[C@H](CCCN=C(N)N)NC(=O)[C@H](C)NC(=O)[C@H](CCCC)NC(=O)[C@H]1CC(=O)NCCC[C@H](NC(=O)[C@H](CC(C)C)NC(=O)[C@H](CC(C)C)NC(=O)[C@H](Cc2c[nH]cn2)NC(=O)[C@H](N)Cc2ccccc2)C(=O)N[C@@H](CCC(=O)O)C(=O)N[C@@H](C(C)C)C(=O)N[C@@H](CC(C)C)C(=O)N1)C(=O)N[C@@H](CCC(=O)O)C(=O)N[C@H](C(=O)N[C@H](C(=O)C(N)=O)[C@@H](C)CC)[C@@H](C)CC |
| < 0.001 | 23 | CCCC[C@H](NC(=O)[C@H](CC(C)C)NC(=O)[C@H](CCCCN)NC(=O)[C@H](CCCN=C(N)N)NC(=O)[C@H](CC(N)=O)NC(=O)[C@H](CO)NC(=O)[C@H](Cc1c[nH]cn1)NC(=O)[C@H](C)NC(=O)[C@H](CCC(N)=O)NC(=O)[C@H](CCC(N)=O)NC(=O)[C@H](C)NC(=O)[C@H](CC(C)C)NC(=O)[C@H](CCC(N)=O)NC(=O)[C@H](CCC(=O)O)NC(=O)[C@H](C)NC(=O)[C@H](CCCN=C(N)N)NC(=O)[C@H](C)NC(=O)[C@H](CCCC)NC(=O)[C@H]1CCC(=O)NCCCC[C@H](NC(=O)[C@H](CCCN=C(N)N)NC(=O)[C@H](CC(C)C)NC(=O)[C@H](CC(C)C)NC(=O)[C@H](Cc2c[nH]cn2)NC(=O)[C@H](N)Cc2ccccc2)C(=O)N[C@@H](C(C)C)C(=O)N[C@@H](CC(C)C)C(=O)N1)C(=O)N[C@@H](CCC(=O)O)C(=O)N[C@H](C(=O)N[C@H](C(=O)C(N)=O)[C@@H](C)CC)[C@@H](C)CC |
| 0.001 | 2 | CCCC[C@H](NC(=O)[C@@H]1CC(=O)NCCC[C@H](NC(=O)[C@H](CC(C)C)NC(=O)[C@H](CC(C)C)NC(=O)[C@H](Cc2c[nH]cn2)NC(=O)[C@H](N)Cc2ccccc2)C(=O)N[C@@H](CCC(=O)O)C(=O)N[C@@H](C(C)C)C(=O)N[C@@H](CC(C)C)C(=O)N1)C(=O)N[C@@H](C)C(=O)N[C@@H](CCCN=C(N)N)C(=O)N[C@@H](C)C(=O)N[C@@H](CCC(=O)O)C(=O)N[C@@H](CCC(N)=O)C(=O)N[C@@H](CC(C)C)C(=O)N[C@@H](C)C(=O)N[C@@H](CCC(N)=O)C(=O)N[C@@H](CCC(N)=O)C(=O)N[C@@H](C)C(=O)N[C@@H](Cc1c[nH]cn1)C(=O)N[C@@H](CO)C(=O)N[C@@H](CC(N)=O)C(=O)N[C@@H](CCCN=C(N)N)C(=O)N[C@@H](CCCCN)C(=O)N[C@@H](CC(C)C)C(=O)N[C@@H](CCCC)C(=O)N[C@@H](CCC(=O)O)C(=O)N[C@H](C(=O)N[C@H](C(=O)C(N)=O)[C@@H](C)CC)[C@@H](C)CC |
